The record followed here is patent US8227601B2, “Diaryl-purines, azapurines and -deazapurines as non-nucleoside reverse transcriptase inhibitor for treatment of HIV” (priority 2005, dated 2012).

Broadly, the EC50 is the concentration giving half of the maximal effect.

Each structure is given as a SMILES string. Bounds are passed on as bounds.

The subject of the first test is HIV-1 Y188L. Nature of the test: microbe, parasite or virus in culture. Particulars: Human immunodeficiency virus 1, read-out: EC50 Y188L (nM). It is filed as cell-based, human immunodeficiency virus type 1 (HIV-1).
In the case of `Cc1ccc(Nc2nc(Nc3ccc(C#N)cc3)nc3[nH]cnc23)c2ccccc12` [Cpd 20], the EC50 was greater than 100 nM.
Same read-out and setting: the figure for `N#Cc1ccc(Nc2nc(Oc3ccc(Cl)c4ccccc34)c3nc[nH]c3n2)cc1` [Cpd 21] is 10 to 100 nM; for `N#Cc1ccc(Nc2nc(Nc3ccc(C4CC4)c4ccccc34)c3nc[nH]c3n2)cc1` [Cpd 22] it is greater than 100 nM; for `Cc1cc(C)c(Nc2nc(Nc3ccc(C#N)cc3)nc3[nH]cnc23)c(C)c1` [Cpd 23] it is less than 10 nM.
On the same count and under the same terms, the figure for `N#Cc1ccc(Nc2nc(Nc3ccc(C#N)cc3)c3nc[nH]c3n2)cc1` [Cpd 24] is greater than 100 nM.
As for `Cc1cc(C#N)cc(C)c1Oc1nc(Nc2ccc(C#N)cc2)nc2[nH]cnc12` [Cpd 25], the EC50 was less than 10 nM.
Same read-out and setting: to `CCn1ccc2c(Oc3c(C)cc(C#N)cc3C)nc(Nc3ccc(C#N)cc3)nc21` [Cpd 26] belongs 10 to 100 nM; to `Cc1cc(C2CC2)cc(Cl)c1Nc1nc(Nc2ccc(C#N)cc2)nc2[nH]cnc12` [Cpd 27], 10 to 100 nM.
Still for that read-out and setting: the figure for `Cc1cc(C2CC2)cc(C)c1Nc1nc(Nc2ccc(C#N)cc2)nc2[nH]cnc12` [Cpd 28] is 10 to 100 nM; for `N#Cc1ccc(Nc2nc(Nc3ccc4c(c3)CCC4)c3nc[nH]c3n2)cc1` [Cpd 29] it is greater than 100 nM; for `Cc1ccc2cccc(Nc3nc(Nc4ccc(C#N)cc4)nc4[nH]cnc34)c2n1` [Cpd 30] it is greater than 100 nM.
Still for that read-out and setting: to `Cc1ccc2ccccc2c1Nc1nc(Nc2ccc(C#N)cc2)nc2[nH]cnc12` [Cpd 32] belongs greater than 100 nM.
Take `Cc1cc(C2CC2)cc(C)c1Oc1nc(Nc2ccc(C#N)cc2)nc2[nH]ccc12` [Cpd 33]: the EC50 is 10 to 100 nM.
On the same count and under the same terms, to `Cc1cc(C)c(Oc2nc(Nc3ccc(F)cc3)nc3[nH]cnc23)c(C)c1` [Cpd 34] belongs 10 to 100 nM; to `COc1ccc(Nc2nc(Oc3c(C)cc(C)cc3C)c3nc[nH]c3n2)cc1` [Cpd 35], greater than 100 nM.
Same read-out and setting: to `Cc1cc(C)c(Oc2nc(Nc3cccc(C#N)c3)nc3[nH]cnc23)c(C)c1` [Cpd 36] belongs greater than 100 nM; to `Cc1cc(C)c(Oc2nc(Nc3ccc(C#N)cc3)nc3cc[nH]c23)c(C)c1` [Cpd 37], less than 10 nM.
For the compound `Cc1cc(C)c(Oc2nc(Nc3ccc(C(F)(F)F)cc3)nc3[nH]cnc23)c(C)c1` [Cpd 38], the EC50 was greater than 100 nM.
Still for that read-out and setting: to `Cc1cc(C)c(Oc2nc(Nc3cccc(C(F)(F)F)c3)nc3[nH]cnc23)c(C)c1` [Cpd 39] belongs greater than 100 nM.

The test is the same for the next values; noted with them: read-out: EC50 Y188L; Y188L mutant.
For `Cc1cc(C)c(Oc2nc(Nc3ccc(C#N)cc3)nc3[nH]cnc23)c(C)c1` [Cpd 31], the EC50 was less than 10 nM.

A further test relates to HIV-1 L1001-K103N. Briefly: microbe, parasite or virus in culture. Type of test: cell-based, human immunodeficiency virus type 1 (HIV-1). As to conditions: Human immunodeficiency virus 1, read-out: EC50 L1001-K103N (nM), L1001-K103N mutant.
For `Cc1ccc(Nc2nc(Nc3ccc(C#N)cc3)nc3[nH]cnc23)c2ccccc12` [Cpd 20], the EC50 was greater than 100 nM.
Still for that read-out and setting: the figure for `N#Cc1ccc(Nc2nc(Oc3ccc(Cl)c4ccccc34)c3nc[nH]c3n2)cc1` [Cpd 21] is greater than 100 nM; for `N#Cc1ccc(Nc2nc(Nc3ccc(C4CC4)c4ccccc34)c3nc[nH]c3n2)cc1` [Cpd 22] it is greater than 100 nM; for `Cc1cc(C)c(Nc2nc(Nc3ccc(C#N)cc3)nc3[nH]cnc23)c(C)c1` [Cpd 23] it is 10 to 100 nM.
Same read-out and setting: the figure for `N#Cc1ccc(Nc2nc(Nc3ccc(C#N)cc3)c3nc[nH]c3n2)cc1` [Cpd 24] is greater than 100 nM; for `Cc1cc(C#N)cc(C)c1Oc1nc(Nc2ccc(C#N)cc2)nc2[nH]cnc12` [Cpd 25] it is 10 to 100 nM; for `CCn1ccc2c(Oc3c(C)cc(C#N)cc3C)nc(Nc3ccc(C#N)cc3)nc21` [Cpd 26] it is greater than 100 nM.
The same measure, in the same setting: to `Cc1cc(C2CC2)cc(Cl)c1Nc1nc(Nc2ccc(C#N)cc2)nc2[nH]cnc12` [Cpd 27] belongs 10 to 100 nM.
On to `Cc1cc(C2CC2)cc(C)c1Nc1nc(Nc2ccc(C#N)cc2)nc2[nH]cnc12` [Cpd 28], for which the EC50 lay in the range of 10 to 100 nM.
The same measure, in the same setting: to `N#Cc1ccc(Nc2nc(Nc3ccc4c(c3)CCC4)c3nc[nH]c3n2)cc1` [Cpd 29] belongs greater than 100 nM; to `Cc1ccc2cccc(Nc3nc(Nc4ccc(C#N)cc4)nc4[nH]cnc34)c2n1` [Cpd 30], greater than 100 nM; to `Cc1ccc2ccccc2c1Nc1nc(Nc2ccc(C#N)cc2)nc2[nH]cnc12` [Cpd 32], greater than 100 nM.
Same read-out and setting: the figure for `Cc1cc(C2CC2)cc(C)c1Oc1nc(Nc2ccc(C#N)cc2)nc2[nH]ccc12` [Cpd 33] is 10 to 100 nM; for `Cc1cc(C)c(Oc2nc(Nc3ccc(F)cc3)nc3[nH]cnc23)c(C)c1` [Cpd 34] it is 10 to 100 nM; for `COc1ccc(Nc2nc(Oc3c(C)cc(C)cc3C)c3nc[nH]c3n2)cc1` [Cpd 35] it is greater than 100 nM.
On the same count and under the same terms, the figure for `Cc1cc(C)c(Oc2nc(Nc3cccc(C#N)c3)nc3[nH]cnc23)c(C)c1` [Cpd 36] is greater than 100 nM; for `Cc1cc(C)c(Oc2nc(Nc3ccc(C#N)cc3)nc3cc[nH]c23)c(C)c1` [Cpd 37] it is less than 10 nM.
As for `Cc1cc(C)c(Oc2nc(Nc3ccc(C(F)(F)F)cc3)nc3[nH]cnc23)c(C)c1` [Cpd 38], the EC50 was greater than 100 nM.
The same measure, in the same setting: to `Cc1cc(C)c(Oc2nc(Nc3cccc(C(F)(F)F)c3)nc3[nH]cnc23)c(C)c1` [Cpd 39] belongs greater than 100 nM.

Still in this test, the particulars now being: read-out: EC50 L1001-K103N; L1001-K103N mutant.
As for `Cc1cc(C)c(Oc2nc(Nc3ccc(C#N)cc3)nc3[nH]cnc23)c(C)c1` [Cpd 31], the EC50 is 10 to 100 nM.

Another test concerns wild type HIV-1. Nature of the test: microbe, parasite or virus in culture. It is filed as cell-based, human immunodeficiency virus type 1 (HIV-1). Particulars: Human immunodeficiency virus 1, Hela-JC53, read-out: EC50 WT (nM).
In the case of `Cc1ccc(Nc2nc(Nc3ccc(C#N)cc3)nc3[nH]cnc23)c2ccccc12` [Cpd 20], the EC50 is less than 10 nM.
Take `N#Cc1ccc(Nc2nc(Oc3ccc(Cl)c4ccccc34)c3nc[nH]c3n2)cc1` [Cpd 21]: the EC50 was less than 10 nM.
As for `N#Cc1ccc(Nc2nc(Nc3ccc(C4CC4)c4ccccc34)c3nc[nH]c3n2)cc1` [Cpd 22], the EC50 was less than 10 nM.
Still for that read-out and setting: to `Cc1cc(C)c(Nc2nc(Nc3ccc(C#N)cc3)nc3[nH]cnc23)c(C)c1` [Cpd 23] belongs less than 10 nM; to `N#Cc1ccc(Nc2nc(Nc3ccc(C#N)cc3)c3nc[nH]c3n2)cc1` [Cpd 24], 10 to 100 nM.
Same read-out and setting: the figure for `Cc1cc(C#N)cc(C)c1Oc1nc(Nc2ccc(C#N)cc2)nc2[nH]cnc12` [Cpd 25] is less than 10 nM.
Still for that read-out and setting: to `CCn1ccc2c(Oc3c(C)cc(C#N)cc3C)nc(Nc3ccc(C#N)cc3)nc21` [Cpd 26] belongs less than 10 nM.
Regarding `Cc1cc(C2CC2)cc(Cl)c1Nc1nc(Nc2ccc(C#N)cc2)nc2[nH]cnc12` [Cpd 27], the EC50 is less than 10 nM.
On the same count and under the same terms, the figure for `Cc1cc(C2CC2)cc(C)c1Nc1nc(Nc2ccc(C#N)cc2)nc2[nH]cnc12` [Cpd 28] is less than 10 nM.
The same measure, in the same setting: to `N#Cc1ccc(Nc2nc(Nc3ccc4c(c3)CCC4)c3nc[nH]c3n2)cc1` [Cpd 29] belongs less than 10 nM; to `Cc1ccc2cccc(Nc3nc(Nc4ccc(C#N)cc4)nc4[nH]cnc34)c2n1` [Cpd 30], greater than 100 nM; to `Cc1ccc2ccccc2c1Nc1nc(Nc2ccc(C#N)cc2)nc2[nH]cnc12` [Cpd 32], less than 10 nM.
On the same count and under the same terms, to `Cc1cc(C2CC2)cc(C)c1Oc1nc(Nc2ccc(C#N)cc2)nc2[nH]ccc12` [Cpd 33] belongs less than 10 nM; to `Cc1cc(C)c(Oc2nc(Nc3ccc(F)cc3)nc3[nH]cnc23)c(C)c1` [Cpd 34], less than 10 nM; to `COc1ccc(Nc2nc(Oc3c(C)cc(C)cc3C)c3nc[nH]c3n2)cc1` [Cpd 35], less than 10 nM.
`Cc1cc(C)c(Oc2nc(Nc3cccc(C#N)c3)nc3[nH]cnc23)c(C)c1` [Cpd 36]: the EC50 was less than 10 nM.
Same read-out and setting: the figure for `Cc1cc(C)c(Oc2nc(Nc3ccc(C#N)cc3)nc3cc[nH]c23)c(C)c1` [Cpd 37] is less than 10 nM; for `Cc1cc(C)c(Oc2nc(Nc3ccc(C(F)(F)F)cc3)nc3[nH]cnc23)c(C)c1` [Cpd 38] it is 10 to 100 nM; for `Cc1cc(C)c(Oc2nc(Nc3cccc(C(F)(F)F)c3)nc3[nH]cnc23)c(C)c1` [Cpd 39] it is greater than 100 nM.

The test is the same for the next values; noted with them: read-out: EC50 WT; wild-type HIV-1.
In the case of `Cc1cc(C)c(Oc2nc(Nc3ccc(C#N)cc3)nc3[nH]cnc23)c(C)c1` [Cpd 31], the EC50 is less than 10 nM.

Another test has as its system HIV-1 Y181C. Nature of the test: microbe, parasite or virus in culture. Type of test: cell-based, human immunodeficiency virus type 1 (HIV-1). As to conditions: Human immunodeficiency virus 1, read-out: EC50 Y181C (nM), Y181C mutant.
Turning to `Cc1ccc(Nc2nc(Nc3ccc(C#N)cc3)nc3[nH]cnc23)c2ccccc12` [Cpd 20], the EC50 lay in the range of 10 to 100 nM.
`N#Cc1ccc(Nc2nc(Oc3ccc(Cl)c4ccccc34)c3nc[nH]c3n2)cc1` [Cpd 21]: the EC50 is 10 to 100 nM.
Still for that read-out and setting: the figure for `N#Cc1ccc(Nc2nc(Nc3ccc(C4CC4)c4ccccc34)c3nc[nH]c3n2)cc1` [Cpd 22] is greater than 100 nM.
On the same count and under the same terms, the figure for `Cc1cc(C)c(Nc2nc(Nc3ccc(C#N)cc3)nc3[nH]cnc23)c(C)c1` [Cpd 23] is less than 10 nM.
The same measure, in the same setting: the figure for `N#Cc1ccc(Nc2nc(Nc3ccc(C#N)cc3)c3nc[nH]c3n2)cc1` [Cpd 24] is greater than 100 nM; for `Cc1cc(C#N)cc(C)c1Oc1nc(Nc2ccc(C#N)cc2)nc2[nH]cnc12` [Cpd 25] it is less than 10 nM; for `CCn1ccc2c(Oc3c(C)cc(C#N)cc3C)nc(Nc3ccc(C#N)cc3)nc21` [Cpd 26] it is 10 to 100 nM.
Turning to `Cc1cc(C2CC2)cc(Cl)c1Nc1nc(Nc2ccc(C#N)cc2)nc2[nH]cnc12` [Cpd 27], the EC50 lay within 10 to 100 nM.
On the same count and under the same terms, the figure for `Cc1cc(C2CC2)cc(C)c1Nc1nc(Nc2ccc(C#N)cc2)nc2[nH]cnc12` [Cpd 28] is less than 10 nM; for `N#Cc1ccc(Nc2nc(Nc3ccc4c(c3)CCC4)c3nc[nH]c3n2)cc1` [Cpd 29] it is greater than 100 nM; for `Cc1ccc2cccc(Nc3nc(Nc4ccc(C#N)cc4)nc4[nH]cnc34)c2n1` [Cpd 30] it is greater than 100 nM.
Same read-out and setting: the figure for `Cc1ccc2ccccc2c1Nc1nc(Nc2ccc(C#N)cc2)nc2[nH]cnc12` [Cpd 32] is 10 to 100 nM.
On the same count and under the same terms, the figure for `Cc1cc(C2CC2)cc(C)c1Oc1nc(Nc2ccc(C#N)cc2)nc2[nH]ccc12` [Cpd 33] is 10 to 100 nM; for `Cc1cc(C)c(Oc2nc(Nc3ccc(F)cc3)nc3[nH]cnc23)c(C)c1` [Cpd 34] it is less than 10 nM; for `COc1ccc(Nc2nc(Oc3c(C)cc(C)cc3C)c3nc[nH]c3n2)cc1` [Cpd 35] it is 10 to 100 nM.
With `Cc1cc(C)c(Oc2nc(Nc3cccc(C#N)c3)nc3[nH]cnc23)c(C)c1` [Cpd 36], the EC50 lay in the range of 10 to 100 nM.
Same read-out and setting: to `Cc1cc(C)c(Oc2nc(Nc3ccc(C#N)cc3)nc3cc[nH]c23)c(C)c1` [Cpd 37] belongs less than 10 nM; to `Cc1cc(C)c(Oc2nc(Nc3ccc(C(F)(F)F)cc3)nc3[nH]cnc23)c(C)c1` [Cpd 38], greater than 100 nM; to `Cc1cc(C)c(Oc2nc(Nc3cccc(C(F)(F)F)c3)nc3[nH]cnc23)c(C)c1` [Cpd 39], greater than 100 nM.

The test is the same for the next values; noted with them: read-out: EC50 Y181C; Y181C mutant.
Take `Cc1cc(C)c(Oc2nc(Nc3ccc(C#N)cc3)nc3[nH]cnc23)c(C)c1` [Cpd 31]: the EC50 is 10 to 100 nM.
